Laboratory results taken from patent EP2832223A1, “HERBICIDAL COMPOSITION” (Ishihara Sangyo Kaisha, Ltd., priority 2012, dated 2013).

Legend:
Assay type in all cases: in vivo
[1] = test system: sunn-hemp (Crotalaria juncea L.); assay: Test Example 7: pot test, soil treatment, visual growth inhibition; settings: soil, read-out: Growth inhibition rate (%) of sunn-hemp Measured value
Description: (§1) Upland field soil was put into a 1/300,000 ha pot, and seeds of sunn-hemp (Crotalaria juncea L.) were sown. On the next day, predetermined amounts of ONEHOPE NYUZAI (tradename), Click (tradename), Mikado (tradename) and a wettable powder containing bicyclopyrone prepared in accordance with a conventional formulation method were diluted with water (in an amount corresponding to 1,000 L/ha) and applied for soil treatment by a small sprayer.
(§2) On the 28th day after treatment, the state of growth of the sunn-hemp was visually observed to determine the growth inhibition rate (%). The growth inhibition rate (%) (measured value) and the growth inhibition rate (%) calculated in the same manner as in the above Test Example 1 are shown in Table 7.

[2] = test system: velvetleaf (Abutilon theophrasti Medic.); assay: Test Example 16: pot test, soil and foliar treatment, visual growth inhibition; settings: read-out: Growth inhibition rate (%) of velvetleaf Measured value
From the text: (§3) Upland field soil was put into a 1/1,000,000 ha pot, and seeds of velvetleaf (Abutilon theophrasti Medic.) were sown. When the velvetleaf reached 4.0 to 4.3-leaf stage, seeds of velvetleaf were further sown in the same pot assuming conditions such that weeds would later grow. Three days later, predetermined amounts of ONEHOPE NYUZAI (tradename), Click (tradename), Callisto (tradename), Mikado (tradename), a wettable powder containing bicyclopyrone as an active ingredient and Clio (tradename) were diluted with water in an amount corresponding to 300 L/ha and applied for soil treatment and for foliar treatment by a small sprayer.
as §2, with “29th” for “28th”, “velvetleaf” for “sunn-hemp”, “16.” for “7.”

[3] = test system: velvetleaf (Abutilon theophrasti Medic.); assay: Test Example 14: pot test, soil and foliar treatment, visual growth inhibition; settings: read-out: Growth inhibition rate (%) of velvetleaf Measured value
From the text: as §3, with “On the next day,” for “Three days later,”
as §2, with “31 st” for “28th”, “velvetleaf” for “sunn-hemp”, “14.” for “7.”

[4] = test system: annual ragweed (Ambrosia artemisiifolia L.); assay: Test Example 11: pot test, soil treatment, visual growth inhibition; settings: soil, read-out: Growth inhibition rate (%) of annual ragweed Measured value
Description: as §1, with “annual ragweed (Ambrosia artemisiifolia” for “sunn-hemp (Crotalaria juncea”
as §2, with “annual ragweed” for “sunn-hemp”, “11.” for “7.”

[5] = test system: Japanese millet (Echinochloa utilis Ohwi et Yabuno); assay: Test Example 13: pot test, soil and foliar treatment, visual growth inhibition; settings: read-out: Growth inhibition rate (%) of Japanese millet Measured value
Description: Upland field soil was put into a 1/1,000,000 ha pot, and seeds of Japanese millet (Echinochloa utilis Ohwi et Yabuno) were sown. When the Japanese millet reached 3.8 to 4.0-leaf stage, seeds of Japanese millet were further sown in the same pot. On the next day, predetermined amounts of ONEHOPE NYUZAI (tradename), Click (tradename) and a wettable powder containing bicyclopyrone prepared in accordance with a conventional formulation method were diluted with water (in an amount corresponding to 1,000 L/ha) and applied for soil treatment and for foliar treatment by a small sprayer.
as §2, with “Japanese millet” for “sunn-hemp”, “13.” for “7.”

[6] = test system: korean lespedeza (Kummerowia stipulacea (Maxim.) Makino); assay: Test Example 6: pot test, soil treatment, visual growth inhibition; settings: soil, read-out: Growth inhibition rate (%) of korean lespedeza Measured value
Description: as §1, with “korean lespedeza (Kummerowia stipulacea (Maxim.) Makino)” for “sunn-hemp (Crotalaria juncea L.)”
as §2, with “14th” for “28th”, “korean lespedeza” for “sunn-hemp”, “6.” for “7.”

[7] = test system: Japanese millet (Echinochloa utilis Ohwi et Yabuno); assay: Test Example 9: pot test, soil treatment, visual growth inhibition; settings: soil, read-out: Growth inhibition rate (%) of Japanese millet Measured value
Description: as §1, with “Japanese millet (Echinochloa utilis Ohwi et Yabuno)” for “sunn-hemp (Crotalaria juncea L.)”
as §2, with “Japanese millet” for “sunn-hemp”, “9.” for “7.”

[8] = test system: wild oat (Avena fatua L.); assay: Test Example 4: pot test, soil treatment, visual growth inhibition; settings: soil, read-out: Growth inhibition rate (%) of wild oat Measured value
Description: as §1, with “1/1,000,000” for “1/300,000”, “wild oat (Avena fatua” for “sunn-hemp (Crotalaria juncea”, “Click” for “Click (tradename), Mikado”
as §2, with “wild oat” for “sunn-hemp”, “4.” for “7.”

[9] = test system: prickly sida (Sida spinosa L.); assay: Test Example 10: pot test, soil treatment, visual growth inhibition; settings: 200 g/ha, soil treatment, 28th day after treatment, read-out: Growth inhibition rate (%) of prickly sida Measured value
Description: (§4) Upland field soil was put into a 1/300,000 ha pot, and seeds of prickly sida (Sida spinosa L.) were sown. On the next day, predetermined amounts of ONEHOPE NYUZAI (tradename), Click (tradename), Spectrum (tradename), Callisto (tradename) and Clio (tradename) were diluted with water (in an amount corresponding to 1,000 L/ha) and applied for soil treatment by a small sprayer.
as §2, with “prickly sida” for “sunn-hemp”, “10.” for “7.”

[10] = test system: rostrate sesbania (Sesbania rostrata Bremek. & Oberm.); assay: Test Example 8: pot test, soil treatment, visual growth inhibition; settings: 2000 g/ha, soil treatment, 28th day after treatment, read-out: Growth inhibition rate (%) of rostrate sesbania Measured value
Description: as §4, with “rostrate sesbania (Sesbania rostrata Bremek. & Oberm.)” for “prickly sida (Sida spinosa L.)”, “Spectrum” for “Spectrum (tradename), Callisto”
as §2, with “rostrate sesbania” for “sunn-hemp”, “8.” for “7.”

[11] = test system: guinea grass (Panicum maximum Jacq.); assay: Test Example 17: pot test, soil and foliar treatment, visual growth inhibition; settings: Megathyrsus maximus, 1000 g/ha, 29th day after treatment, read-out: Growth inhibition rate (%) of guinea grass Measured value
Description: (§5) Upland field soil was put into a 1/1,000,000 ha pot, and seeds of guinea grass (Panicum maximum Jacq.) were sown. When the guinea grass reached 5.2 to 6.0-leaf stage, seeds of guinea grass were further sown in the same pot assuming conditions such that weeds would later grow. Three days later, predetermined amounts of ONEHOPE NYUZAI (tradename), Click (tradename) and Spectrum (tradename) were diluted with water in an amount corresponding to 300 L/ha and applied for soil treatment and for foliar treatment by a small sprayer.
as §2, with “29th” for “28th”, “guinea grass” for “sunn-hemp”, “17.” for “7.”

[12] = test system: guinea grass (Panicum maximum Jacq.); assay: Test Example 15: pot test, soil and foliar treatment, visual growth inhibition; settings: Megathyrsus maximus, 31st day after treatment, read-out: Growth inhibition rate (%) of guinea grass Measured value
Description: as §5, with “On the next day,” for “Three days later,”, “Click (tradename), Spectrum” for “Click”, “Cadou” for “Spectrum”
as §2, with “31 st” for “28th”, “guinea grass” for “sunn-hemp”, “15.” for “7.”

[13] = test system: common cocklebur (Xanthium strumarium L.); assay: Test Example 1: pot test, foliar treatment, visual growth inhibition; settings: 1000 g/ha, foliar treatment at 4.3 to 4.8-leaf stage, 22nd day after treatment, read-out: Growth inhibition rate (%) of common cocklebur Measured value
From the text: In the present invention, a synergistic effect means a higher herbicidal activity of three active ingredients combined, than the simple sum of the respective herbicidal activities of the three active ingredients (the expected activity). The activity expected by the combination of three active ingredients can be calculated as follows (Colby S.R., "Weed", vol. 15, p. 20-22, 1967). […] Upland field soil was put into a 1/300,000 ha pot, and seeds of common cocklebur (Xanthium strumarium L.) were sown. […] Click, manufactured by BASF) and EC formulation containing dimethenamid-P as an active ingredient (tradename: Spectrum, manufactured by BASF) were diluted with water (in an amount corresponding to 1,000 L/ha) and applied for foliar treatment by a small sprayer. On the 22nd day after treatment, the state of growth of the common cocklebur was visually observed to determine the growth inhibition rate (%) in accordance with the following evalution standard. The growth inhibition rate (%) (measured value) and the growth inhibition rate (%) (calculated value) calculated by the Colby's formula are shown in Table 1.

Row | Structure (SMILES) | inhibition at 25 g/ha [1] | inhibition at 75 g/ha [2] | inhibition at 50 g/ha [3] | inhibition at 150 g/ha [3] | inhibition at 100 g/ha [4] | inhibition at 100 g/ha [5] | inhibition at 400 g/ha [6] | inhibition at 25 g/ha [7] | inhibition at 100 g/ha [8] | inhibition at 200 g/ha [9] | inhibition at 2000 g/ha [10] | inhibition at 1000 g/ha [11] | inhibition at 500 g/ha ([12]; 500 g/ha) | inhibition at 1000 g/ha ([12]; 1000 g/ha) | inhibition at 1000 g/ha [13]
1 | COCCOCc1nc(C(F)(F)F)ccc1C(=O)C1=C(O)C2CCC(C2)C1=O (stereo not drawn) [Bicyclopyrone, 4-hydroxy-3-{2-[(2-methoxyethoxy)methyl]-6-(trifluoromethyl)-3-pyridylcarbonyl}bicyclo[3.2.1]oct-3-en-2-one] | 20% | 89% | 88% | 93% | 88% | 78% | 15% | 83% | 25% |  |  |  |  |  | 
2 | COC[C@H](C)N(C(=O)CCl)c1c(C)csc1C [Dimethenamid-P, (S)-2-chloro-N-(2,4-dimethyl-3-thienyl)-N-(2-methoxy-1-methylethyl)acetamide] |  |  |  |  |  |  |  |  |  | 0% | 40% | 55% | 57% | 60% | 0%
